Data set [1] deals with Diabetic Peripheral Neuropathy in a Mouse Induced by Streptozotocin. Kind of data set: Cold plate test (4° C.), diabetic peripheral neuropathy induced by streptozotocin. In kind it is in vivo, C57BL/6J mice. Particulars: group receiving streptozotocin only (200 mg/kg, Day 0 only), vs control group. The protocol: (§1) Six to seven-week-old male C57BL/6J mice were used for the tests as with Example 7. All the mice were acclimated for seven days after arrival. Then, the mice were grouped into the following four groups: a control group, a group receiving streptozotocin, a group receiving 1 mg/kg xylitol, and a group receiving streptozotocin+1 mg/kg xylitol. Each group consisted of nine mice.
(§2) The mice in the group receiving 1 mg/kg xylitol were orally administered with xylitol at a dose of 1 mg/kg daily from Day 0. The mice in the group receiving streptozotocin+1 mg/kg xylitol were orally administered with xylitol at a dose of 1 mg/kg daily from Day 21 of administration.
A cold plate test was performed to examine the effect due to xylitol on paresthesia that is caused by a low temperature stimulus. The mice in the four groups described in (1) of the present example (Example 8) were placed on a cold plate set at 4° C., and withdrawal response time (latent time) was measured. It is presumed that a shorter withdrawal response time (latent time) reflects a greater degree of shunning the low temperature stimulus by the cold plate. […]
(§3) On Day 8 of acclimation, the mice in the group receiving streptozotocin and the group receiving streptozotocin+5 mg/kg D-threitol were administered with streptozotocin at a dose of 200 mg/kg. A massive dose of streptozotocin destroys pancreatic cells in the mice. As a result, insulin is no longer secreted, and thus, diabetes can be developed in the mice. This day was designated as the first day of the administration (Day 0). Note that streptozotocin was administered only on the first day of administration.
(§4) The mice in the group receiving 5 mg/kg D-threitol and the group receiving streptozotocin+5 mg/kg D-threitol were orally administered with D-threitol at a dose of 5 mg/kg daily from Day 0. […]
The mice in the group receiving 5 mg/kg D-threitol were orally administered with D-threitol at a dose of 5 mg/kg daily from Day 0. The mice in the group receiving streptozotocin+5 mg/kg D-threitol were orally administered with D-threitol at a dose of 5 mg/kg daily from Day 21 of administration.
A cold plate test was performed to examine the effect of D-threitol on paresthesia that is caused by a low temperature stimulus. The mice in the four groups described in (1) of the present example (Example 10) were placed on a cold plate set at 4° C., and withdrawal response time (latent time) was measured. […]
A cold plate test was performed to examine the effect of L-talitol on paresthesia that is caused by a low temperature stimulus. The mice in the four groups described in (1) of the present example (Example 11) were placed on a cold plate set at 4° C., and withdrawal response time (latent time) was measured. […]

Data set [2] has the same test system. Kind of data set: Von Frey test (0.16 g filament), diabetic peripheral neuropathy induced by streptozotocin. The conditions noted are these: group receiving streptozotocin only (200 mg/kg, Day 0 only), vs control group. The class given is in vivo, C57BL/6J mice. The protocol:
On Day 8 of acclimation, the mice in the group receiving streptozotocin and the group receiving streptozotocin+1 mg/kg xylitol were administered with streptozotocin at a dose of 200 mg/kg. A massive dose of streptozotocin destroys pancreatic cells in the mice. As a result, insulin is no longer secreted, and thus, diabetes can be developed in the mice. This day was designated as the first day of the administration (Day 0). Note that streptozotocin was administered only on the first day of administration. […]
as §1, §2
The mice in the four groups described in (1) of the present example (Example 8) were placed in a cage, and the avoidance response frequency (score) was measured by pressing a filament with a bending force of 0.16 g against the back of the hind paw. […]
as §3, §4
The mice in the group receiving 5 mg/kg D-threitol were orally administered with D-threitol at a dose of 5 mg/kg daily from Day 0. […]
The mice in the four groups described in (1) of the present example (Example 10) were placed in a cage, and the avoidance response frequency (score) was measured by pressing a filament with a bending force of 0.16 g against the back of the hind paw. […]
The mice in the four groups described in (1) of the present example (Example 11) were placed in a cage, and the avoidance response frequency (score) was measured by pressing a filament with a bending force of 0.16 g against the back of the hind paw. […]

Data set [3] has as its system Peripheral Neuropathy in a Mouse Caused by Oxaliplatin. Put plainly: Cold plate test (10° C.), peripheral neuropathy caused by oxaliplatin. The class given is in vivo, Balb/c mice. Particulars: group receiving 6 mg/kg oxaliplatin only (i.p. Day 0, 7, 14), vs control group. As to the method: The preventive action of xylitol on hyperesthesia that occurs when an anticancer drug, oxaliplatin, was administered was examined. […] Xylitol was orally administered to a mouse simultaneously with the administration of oxaliplatin, and the following tests (cold plate test and von Frey test) were performed. Oxaliplatin is an anticancer drug classified as a platinum-containing drug. In all of the examples described below, a dosage (administered amount) (mg/kg) refers to the weight of the administered substance per kg body weight of the mouse.
Six to seven-week-old female Balb/c mice were used for the tests. All the mice were acclimated for seven days after arrival. Then, the mice were grouped into the following four groups: a control group, a group receiving oxaliplatin, and two groups receiving oxaliplatin and two different doses of xylitol (groups receiving oxaliplatin+xylitol). Each group consisted of nine mice.
On Day 8 of acclimation, the mice in the group receiving oxaliplatin and the groups receiving oxaliplatin+xylitol were intraperitoneally administered with oxaliplatin at a dose of 6 mg/kg. This day was designated as Day 0 of administration. Thereafter, these mice were intraperitoneally administered with oxaliplatin at a daily dose of 6 mg/kg on Day 7 and Day 14.
The mice in a first group receiving oxaliplatin and xylitol were orally administered with xylitol at a dose of 1 mg/kg daily from Day 0. The mice in a second group receiving oxaliplatin and xylitol were orally administered with xylitol at a dose of 5 mg/kg daily from Day 0.
A cold plate test was performed to examine the effect of xylitol on paresthesia that is caused by a low temperature stimulus. The mice in the four groups described in (1) of the present example (Example 1) were placed on a cold plate set at 10° C., and withdrawal response time (latent time) was measured. It is presumed that a shorter latent time reflects a greater degree of shunning the low temperature stimulus by the cold plate.
Six to seven-week-old female Balb/c mice were used for the tests as with Example 1. All the mice were acclimated for seven days after arrival. Then, the mice were grouped into the following five groups: a control group, a group receiving only oxaliplatin, and three groups receiving oxaliplatin and three different doses of xylitol. Each group consisted of seven mice.
On Day 8 of acclimation, the mice in the groups other than the control group were intraperitoneally administered with oxaliplatin at a dose of 6 mg/kg. This day was designated as the first day of the administration (Day 0). Thereafter, these mice were intraperitoneally administered with oxaliplatin at the same dose on Day 7 and Day 14 for a total of 3 doses.
The mice in a first group receiving oxaliplatin+xylitol were orally administered with xylitol at a dose of 5 mg/kg daily from Day 6 of administration. The mice in a second group receiving oxaliplatin+xylitol were orally administered with xylitol at a dose of 25 mg/kg daily from Day 6 of administration. The mice in a third group receiving oxaliplatin+xylitol were orally administered with xylitol at a dose of 100 mg/kg daily from Day 6 of administration. In this context, “Day 6 of administration” means that the number of days after administration is 6. The same applies hereinafter.
A test was performed on the mice in the five groups described in (1) of the present example (Example 2) to examine the effect of xylitol on paresthesia that is caused by a low temperature stimulus. The mice in respective groups were placed on a cold plate set at 10° C., and withdrawal response time (latent time) was measured. It is presumed that a shorter latent time reflects a greater degree of shunning the low temperature stimulus by the cold plate.
Six to seven-week-old female Balb/c mice were used for the tests as with Example 1. All the mice were acclimated for seven days after arrival. […]

For data set [4] the test system is unchanged. Kind of data set: Von Frey test (0.16 g filament), peripheral neuropathy caused by oxaliplatin. Particulars: group receiving 6 mg/kg oxaliplatin only (i.p. Day 0, 7, 14), vs control group. The class given is in vivo, Balb/c mice. An excerpt:
Six to seven-week-old female Balb/c mice were used for the tests as with Example 1. All the mice were acclimated for seven days after arrival. Then, the mice were grouped into the following four groups: a control group, a group receiving oxaliplatin, a group receiving D-threitol, and a group receiving oxaliplatin and D-threitol (a group receiving oxaliplatin+D-threitol). Each group consisted of five mice.
On Day 8 of acclimation, the mice in the group receiving oxaliplatin and the group receiving oxaliplatin+D-threitol were intraperitoneally administered with oxaliplatin at a dose of 6 mg/kg. This day was designated as the first day of the administration (Day 0). Thereafter, these mice were intraperitoneally administered with oxaliplatin at a daily dose of 6 mg/kg on Day 7 and Day 14.
The mice in the group receiving D-threitol and the group receiving oxaliplatin+D-threitol were orally administered with D-threitol at a dose of 5 mg/kg daily from Day 0.
The mice in the four groups described in (1) of the present example (Example 3) were placed in a cage, and the avoidance response frequency (score) was measured by pressing a filament with a bending force of 0.16 g against the back of the hind paw.
On Day 8 of acclimation, the mice in the group receiving oxaliplatin and the group receiving oxaliplatin+D-threitol were intraperitoneally administered with oxaliplatin at a dose of 6 mg/kg. This day was designated as the first day of the administration (Day 0). Thereafter, these mice were intraperitoneally administered with oxaliplatin at the same dose on Day 7 and Day 14 for a total of 3 doses.
The mice in the group receiving 100 mg/kg D-threitol were orally administered with D-threitol at a dose of 100 mg/kg daily from Day 0. The mice in the group receiving oxaliplatin+100 mg/kg D-threitol were orally administered with D-threitol at a dose of 100 mg/kg daily from Day 6 of administration.
For the mice in the four groups described in (1) of the present example (Example 4), the avoidance response frequency (score) was measured by pressing a filament with a bending force of 0.16 g against the back of the hind paw.
Six to seven-week-old female Balb/c mice were used for the tests as with Example 1. All the mice were acclimated for seven days after arrival. Then, the mice were grouped into the following four groups: a control group, a group receiving oxaliplatin, a group receiving L-talitol, and a group receiving oxaliplatin and L-talitol (a group receiving oxaliplatin+L-talitol). Each group consisted of five mice. […]
The mice in the four groups described in (1) of the present example (Example 5) were placed in a cage, and the avoidance response frequency (score) was measured by pressing a filament with a bending force of 0.16 g against the back of the hind paw. […]

Each structure is given as a SMILES string. Entries after “also recorded” stand apart in the source; their conditions may differ.

Take `CN(N=O)C(=O)N[C@H]1C(O)O[C@H](CO)[C@@H](O)[C@@H]1O` (mixture of isomers) [streptozotocin, reference compound]: the “withdrawal response time (latent time)” value in data set [1] is given as “reduced from Day 7”. Also, the avoidance response score result in data set [2] is listed as “increased from Day 7”.

On to `O=C1[O][Pt]2([NH][C@@H]3CCCC[C@H]3[NH]2)[O]C1=O` [oxaliplatin, reference compound], for which the “withdrawal response time (latent time)” value in data set [3] was “reduced from Day 3 to Day 6 of the test; also recorded: uniform reduction in the withdrawal response time”. For the same compound, the avoidance response score result in data set [4] was “remarkable increase in the avoidance response score”.

The record behind these values is patent US20240099989A1, “AGENT FOR PREVENTING OR IMPROVING PERIPHERAL NEUROPATHY” (KINKI UNIVERSITY, priority 2021, published 2024).
